These results are taken from EP0366451A2, “The use of oxidized polyamines, especially NN'-Bis-(3-propionaldehyde)-1-4-diaminobutane (sperminedialdehyde) as immunosuppressive agents” (ORTHO PHARMACEUTICAL CORPORATION, priority 1988, dated 1990).

Data set [1] concerns lethally irradiated AKR mice. Kind of data set: Bone marrow transplantation with ex vivo treated graft (GVHD, survival). It counts as in vivo. The procedure: C57BL spleen and bone marrow cell mixtures were treated with different concentrations of spermine dialdehyde or control preparation and injected i.v. into lethally irradiated AKR mice. A graph is depicted wherein percentage survival is scored as a function of time.
In bone marrow transplantation, bone marrow cells from normal donor mice were transplanted to totally histoincompatible and lethally irradiated recipients. All recipient mice received 9.5 Gy (950 rads) total body irradiation on day 0 and were then housed in microisolator cages thereafter. They were given autoclaved rodent laboratory chow throughout the whole study and also were allowed to feed ad libitum. Recipients also received 1.5 mg/kg of gentamicin subcutaneously for 20 days after irradiation. On the day of irradiation, bone marrow cells mixed in 3:1 ratio with spleen cells were removed from donors and incubated for an hour with different concentrations of spermine dialdehyde for 1 hour. Spleen cells were added to intensify subsequent graft vs. host disease (GVHD). After incubation, cells were washed 3 times and then injected intravenously into irradiated recipients. Signs of GVHD and survival were scored every day thereafter.
Bone marrow and spleen cell mixtures (3:1 ratio) from C57BL mice were incubated with control preparation or various concentrations of spermine dialdehyde for 1 hour Cells were then washed extensively and injected intravenously into lethally irradiated histoincompatible AKR mice. Signs of graft vs. host diseases such as hunched back, diarrhea, alopecia, and physical conditions were recorded daily. […] Thus treatment with lower doses of spermine dialdehyde inactivated T lymphocytes without being toxic to marrow celis and allowed animals to reconstitute with little sign of GVHD.

Data set [2] has as its system ALDH. As to the kind of experiment: ALDH assay in L1210/0 cells. The format is biochemical, Murine. The conditions noted are these: SDA as substrate. On the procedure: (§1) Cultured murine leukemic cells and livers (excised from mice immediately after cervical dislocation) were homogenized in 3 volumes of ice-cold 1.15% KCl and 1 mM EDTA. The homogenate was centrifuged at 100,000 g for 45 min and the resulting supernatant was used to measure cytosolic ALDH activity. For particulate ALDH assay, the pellet (and homogenate for total ALDH) was resuspended in homogenizing buffer and treated with 0.25% Triton X-100 for 30 min at 4°C. The solubilized preparations were centrifuged at 48,000 g for 30 min and the supernatants were drawn off for ALDH determinations.
(§2) ALDH activity was measured by monitoring the reduction of NAD or NADp for 5-6 min at […] at 37°C in DU70 spectrophotometer (Beckman). The assay mixture contained 50 mM potassium phosphate buffer, pH 7.4, 2.0 mM NAD (or NADP) and 1.0 mM EDTA. The reaction was started by adding the substrate (SDA or other aldehyde) to the prewarmed (5 min at 37°C) assay mixture containing enzyme preparation. Pyrazole (0.1 mM) was added particularly for liver enzyme, to inhibit alcohol dehydrogenase. The apparent Km and maximum velocity (Vmax) values were calculated using a Lineweaver-Burk plot based on the estimation of the slope by regression analysis. Enzyme activity was expressed as mU (nmoles/min) per mg of protein. Protein contents were determined by the Bradford method, using bovine serum albumin as the standard.

Data set [3] concerns Cytosolic ALDH in mouse liver. Kind of data set: NAD-linked cytosolic ALDH assay, mouse liver. It counts as biochemical. On the procedure: as §1, §2
Data set [4] relates to NADP-linked cytosolic ALDH. As to the kind of experiment: NADP-linked cytosolic ALDH assay, L1210/CPA cells. The format is biochemical, Murine. The conditions noted are these: SDA as substrate, L1210/CPA cells. On the procedure:
as §1
as §2, with “standard. […]” for “standard.”

The test system of data set [5] is cytosolic ALDH. Kind of data set: NAD-linked cytosolic ALDH assay, L1210/CPA cells. It counts as biochemical, Murine. The note with it: as substrate, L1210/CPA cytosol. On the procedure:
as §1, §2

The conditions of data set [6]: intraperitoneally; Israel et al.; cited from earlier work.
Data set [7] has as its system B6D2F1 mice. Kind of data set: Delayed type hypersensitivity to SRBC, footpad swelling. The format is in vivo. The procedure:
Delayed type hypersensitivity was induced in the footpad of B6D2F1 mice and swelling measured in mm. Spermine dialdehyde was administered i.p. and i.m. at various timeperiods.
Delayed type hypersensitivity was induced in the footpad of B6D2F1 mice by using sheep red blood cells (SRBC) as the antigen. Briefly, 0.2 ml of 0.01% SRBC was injected i.v. into B6D2F1 mice. Four days later, they were challenged in the footpad with 50 µl of 20% SRBC. Swelling of the footpad was measured 24, 48, and 72 hours later. Spermine dialdehyde was administered i.p. initiating from the day before immunization. After challenge in the footpad, B6D2F1 mice were given an intramuscular (i.m.) injection beside the challenge site one hour after challenge. Some mice received no i.p. administration and were only given one i.m. injection after the challenge.

Each structure is given as a SMILES string.

In the case of `O=CCCNCCCCNCCC=O` [SDA, NN′-Bis-(3-propionaldehyde)-1-4-diaminobutane], the “signs of GVHD” value in data set [1] (bone marrow treated ex vivo for 1 hour) is on record as “only mild signs of GVHD”. Moreover, in data set [1] (marrow treated ex vivo with lower doses (0.03-0.06), Figure 3), the survival time entry is recorded as “significantly prolonged survival time”. Also, in data set [1] (very high dose groups of 0.2mM, ex vivo treatment), the marrow toxicity result was “exhibited marrow toxicity”. In addition, in data set [2], the “enzyme activity in L1210/0 cells” value was “did not exhibit any detectable enzyme activity”. Further, in data set [3] (SDA as substrate, per mg protein), the “specific activity of ALDH, liver compared to L1210 cells” value turned out to be 1.5 times. Besides, the Km in data set [3] (as substrate, mouse liver cytosol, NAD, ± SEM, 3-4 experiments) worked out at 48.5 µM; in data set [5] (NAD, ± SEM, 3-4 experiments) it was 41.6 µM. Moreover, the “Specific (activity of ALDH)” value is 10.5 ± 3.2 mU/mg Protein in data set [3] (as substrate, mouse liver cytosol, propionaldehyde 1.0 mM) and 6.8 ± 1.6 mU/mg Protein in data set [5] (propionaldehyde 1.0 mM). Further, the “activity of NADP-linked cytosolic ALDH” value in data set [4] was 3.0-3.5 mU/mg protein. Also, the LD100 in data set [6] is 40 mg/kg. In addition, the footpad swelling entry in data set [7] (given both systemically (i.p.) and locally (i.m.), 24 or 48 hours after challenge, Figure 7) is listed as “reduced swelling”; in data set [7] (given only after challenge, 24 hours later) it was “swelling similar to that of mice receiving control vehicles”; in data set [7] (given only after challenge, 48 hours later), “reduced swelling compared to that of the control group”.
